According to patent publication US20110312961A1, “2,5-Disubstituted Morpholine Orexin REceptor Antagonists” (priority 2008, published 2011):

Assays:
[1] = target: T1, human native muscle-type nicotinic receptors (likely α1β1γδ) (Homo sapiens, UniProt P02708+P07510+Q07001); experiment: [3H]epibatidine binding, TE-671 membranes
T1 construct: human native muscle-type nicotinic receptors (likely α1β1γδ); endogenous in cells; host or cells: TE-671

[2] = target: T2, human recombinant α4β4 nicotinic receptors (Homo sapiens, UniProt P30926+P43681); experiment: [3H]epibatidine binding, SH-EP1 membranes
T2 construct: expressed in transfected cells; host or cells: SH-EP1

Sprague-Dawley rats = experiment: Complete Freund's adjuvant (CFA)-induced thermal hyperalgesia; assay type: in vivo, rat; settings: 0.1, 1 or 10 mg/kg s.c., 1 hour post-dose, vs vehicle
Protocol: Injection of complete Freund's adjuvant (CFA) in rats is commonly used to evaluate compounds with potential for use as drugs in treatment of mono-arthritis (osteo-arthritis) and other inflammatory conditions. Signs of hyperalgesia develop within 24 h (Schaible and Grubb, 1993).
(2S,3R)—N-2-((3-pyridinyl)methyl)-1-azabicyclo[2.2.2]oct-3-yl)-3,5-difluorobenzamide was evaluated for possible analgesia effect in the CFA-induced thermal hyperalgesia test in rats using methods similar to those described by Walker and colleagues (2003). Briefly, adult male Sprague-Dawley rats (BioLasco, Taiwan) weighing 180±20 g on receipt were randomly assigned to treatment groups of n=8 per group. Animals each received a sub plantar injection (0.1 mL) of CFA (DIFCO, 264010; 0.1% solution) to the right hind paw at 24 h prior to experimental testing. Thermal hyperalgesia was tested using a Paw/Tail stimulator analgesia meter (IITC Model-336G, IITC, USA) with a thermally regulated glass floor set at 30° C. […] The time required for the animal to withdraw the paw from the thermal stimulus was automatically recorded. […]
Twenty-four hours after CFA injection, subjects were pre-selected (for clear presence of thermal hyperalgesia) for experimentation only if the latency to withdrawal was less than 75% of the baseline. […] The post-treatment level of thermal hyperalgesia was then measured at 60 minutes post-treatment. […]

db/db mouse = experiment: Murine model of type 2 diabetes mellitus (db/db); assay type: in vivo
Description: The db/db mouse, a well established model of type 2 diabetes mellitus, is a leptin-deficient mutant that expresses an obese phenotype and also commonly expresses metabolic symptoms including hyperglycemia, hyperlipidemia and hyperinsulinemia (Halaas et al., 1995 and Lee et al., 1996). This experimental animal model of diabetes was employed in a study designed to determine the effects of (2S,3R)—N-2-((3-pyridinyl)methyl)-1-azabicyclo[2.2.2]oct-3-yl)-3,5-difluorobenzamide on body mass and several additional metabolic parameters.
In this study, (2S,3R)—N-2-((3-pyridinyl)methyl)-1-azabicyclo[2.2.2]oct-3-yl)-3,5-difluorobenzamide was repeatedly administered orally (via gavage) at 1.0 mg/kg once daily starting from the age of approximately 3 weeks and continuing throughout the 7-week study. Nondiabetic heterozygote littermate mice (db/+; designated “Db”) were used as controls. Body weight and food intake were determined twice weekly. The α7 antagonist methyllycaconitine (MLA) was also given concurrently via gavage at 3 mg/kg daily to selected cohorts of db/db (designated “db”) or db/+mice. At the end of the 7-week dosing regimen, total growth rates (overall body weight gain) and average daily food intake were calculated. In addition, glucose levels were assessed in mice fasted overnight. Furthermore, blood sample analytes from mice fasted overnight were collected for measurements of tumor necrosis factor-a (TNF-α), triglycerides and glycosylated hemoglobin (HbA1c). All data are expressed as mean±SEM. For each parameter investigated, differences among all groups were compared by one-way ANOVA with post-hoc Neuman-Keuls multiple comparison test.

[3] = tested on: ovalbumin-sensitized mice; experiment: Airway hyperresponsiveness (Penh) and BALF cell counts; assay type: in vivo, mouse; settings: for methacholine-induced increase in Penh values: FIG. 21
Protocol: Using the method of Hamelmann et al, (2S,3R)—N-2-((3-pyridinyl)methyl)-1-azabicyclo[2.2.2]oct-3-yl)-3,5-difluorobenzamide was evaluated for possible inhibition of airway hyper-responsiveness in mice. Briefly, ovalbumin (OVA)-sensitized animals, 12 animals per group, were challenged by nasal inhalation with aerosolized 5% OVA for 25 min on days 21, 23, and 25. The mice were treated with vehicle or (2S,3R)—N-2-((3-pyridinyl)methyl)-1-azabicyclo[2.2.2]oct-3-yl)-3,5-difluorobenzamide subcutaneously (s.c.) twice daily from day 21 to day 26 or once daily intratracheally (i.t.), preceding ovalbumin aerosol challenge by 30 min on days 21, 23 and 25 as well as methacholine challenge or bronchoalveolar lavage fluids (BALF) harvest on day 26. Dexamethasone, the reference standard, was administered at 3 mg/kg orally (p.o.) once daily 60 min before OVA challenge on day 21, 23 and 25 and 60 min before methacholine provocation or BALF harvest on day 26. Noninvasive measurements of airway responsiveness were performed by using whole body plethysmography, in which increases in enhanced pause (Penh) serve as an index of airway obstruction. Responses to inhaled methacholine were measured and calculated as percentage of respective baseline values. Unpaired Students t-test was used for comparison between the vehicle control and the sham group; one-way ANOVA and Dunnett's post-hoc analyses were applied for comparison between the vehicle control and treated groups. Statistical significance is considered at P<0.05.

T1 sequence (P07510 23-517): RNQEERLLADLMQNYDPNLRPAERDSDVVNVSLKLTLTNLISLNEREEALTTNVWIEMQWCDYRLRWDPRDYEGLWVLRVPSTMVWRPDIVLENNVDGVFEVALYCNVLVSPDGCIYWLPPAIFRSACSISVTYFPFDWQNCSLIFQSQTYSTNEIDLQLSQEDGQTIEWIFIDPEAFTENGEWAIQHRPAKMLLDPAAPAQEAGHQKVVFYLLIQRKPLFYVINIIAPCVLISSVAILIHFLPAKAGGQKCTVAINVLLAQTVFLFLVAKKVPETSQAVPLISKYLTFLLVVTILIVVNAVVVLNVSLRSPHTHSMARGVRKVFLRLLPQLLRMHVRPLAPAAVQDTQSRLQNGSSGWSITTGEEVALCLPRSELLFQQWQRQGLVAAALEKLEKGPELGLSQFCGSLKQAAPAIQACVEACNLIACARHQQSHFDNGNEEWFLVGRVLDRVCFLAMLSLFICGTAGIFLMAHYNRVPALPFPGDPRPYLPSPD
T1 sequence (P11230 24-501, further chain): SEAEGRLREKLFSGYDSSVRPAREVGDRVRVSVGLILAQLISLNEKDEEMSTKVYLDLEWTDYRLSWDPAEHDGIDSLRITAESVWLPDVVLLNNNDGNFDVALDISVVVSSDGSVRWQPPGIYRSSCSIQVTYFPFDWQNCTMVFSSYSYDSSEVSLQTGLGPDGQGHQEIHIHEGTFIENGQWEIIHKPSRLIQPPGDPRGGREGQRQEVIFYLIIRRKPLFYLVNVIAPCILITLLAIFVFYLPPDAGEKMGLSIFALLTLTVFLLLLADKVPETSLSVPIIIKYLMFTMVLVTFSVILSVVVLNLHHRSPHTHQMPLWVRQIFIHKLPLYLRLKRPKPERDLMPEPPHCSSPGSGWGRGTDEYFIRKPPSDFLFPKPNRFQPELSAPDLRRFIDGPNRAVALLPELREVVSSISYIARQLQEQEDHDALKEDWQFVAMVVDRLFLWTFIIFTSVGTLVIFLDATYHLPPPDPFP
T1 sequence (P02708 21-457): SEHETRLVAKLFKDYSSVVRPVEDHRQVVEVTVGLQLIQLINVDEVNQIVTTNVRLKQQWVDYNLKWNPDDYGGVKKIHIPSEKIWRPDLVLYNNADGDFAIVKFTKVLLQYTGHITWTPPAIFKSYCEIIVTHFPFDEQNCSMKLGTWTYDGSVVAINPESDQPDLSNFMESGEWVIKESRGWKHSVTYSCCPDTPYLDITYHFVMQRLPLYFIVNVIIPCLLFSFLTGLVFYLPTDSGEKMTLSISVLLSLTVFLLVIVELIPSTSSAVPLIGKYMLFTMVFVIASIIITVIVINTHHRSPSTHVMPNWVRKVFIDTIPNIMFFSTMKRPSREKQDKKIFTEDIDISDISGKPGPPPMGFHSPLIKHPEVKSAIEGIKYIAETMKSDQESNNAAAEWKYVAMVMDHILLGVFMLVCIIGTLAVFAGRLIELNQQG
T1 sequence (Q07001 22-517): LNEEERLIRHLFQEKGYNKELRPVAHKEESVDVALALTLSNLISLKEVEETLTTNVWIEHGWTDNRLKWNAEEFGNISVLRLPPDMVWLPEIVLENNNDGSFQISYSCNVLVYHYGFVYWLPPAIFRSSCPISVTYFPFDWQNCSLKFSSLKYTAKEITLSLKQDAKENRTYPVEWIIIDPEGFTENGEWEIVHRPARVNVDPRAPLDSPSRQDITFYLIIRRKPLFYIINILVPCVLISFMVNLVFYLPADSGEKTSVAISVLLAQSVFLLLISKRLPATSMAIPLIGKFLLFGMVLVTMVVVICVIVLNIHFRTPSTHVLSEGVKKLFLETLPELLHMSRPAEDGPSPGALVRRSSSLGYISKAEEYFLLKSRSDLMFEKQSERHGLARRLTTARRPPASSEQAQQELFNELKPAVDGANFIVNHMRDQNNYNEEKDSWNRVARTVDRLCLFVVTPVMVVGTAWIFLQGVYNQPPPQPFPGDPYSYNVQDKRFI
T2 sequence (P43681 29-627 limits assumed): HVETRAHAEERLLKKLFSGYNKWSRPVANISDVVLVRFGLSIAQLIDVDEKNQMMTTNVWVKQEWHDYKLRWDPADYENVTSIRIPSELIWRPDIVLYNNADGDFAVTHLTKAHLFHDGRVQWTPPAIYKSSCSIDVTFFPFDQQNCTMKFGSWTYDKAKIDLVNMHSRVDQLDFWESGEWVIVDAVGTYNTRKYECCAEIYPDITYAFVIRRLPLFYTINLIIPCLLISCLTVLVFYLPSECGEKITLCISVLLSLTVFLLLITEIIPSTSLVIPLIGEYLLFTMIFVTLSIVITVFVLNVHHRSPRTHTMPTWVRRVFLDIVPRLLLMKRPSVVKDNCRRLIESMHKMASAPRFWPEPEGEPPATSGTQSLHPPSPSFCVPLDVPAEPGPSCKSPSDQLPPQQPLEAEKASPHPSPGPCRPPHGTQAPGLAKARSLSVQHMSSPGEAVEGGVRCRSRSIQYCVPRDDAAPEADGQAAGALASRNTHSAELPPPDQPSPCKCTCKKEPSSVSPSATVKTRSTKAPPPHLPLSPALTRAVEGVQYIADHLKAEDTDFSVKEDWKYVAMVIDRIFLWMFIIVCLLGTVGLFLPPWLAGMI
T2 sequence (P30926 22-498): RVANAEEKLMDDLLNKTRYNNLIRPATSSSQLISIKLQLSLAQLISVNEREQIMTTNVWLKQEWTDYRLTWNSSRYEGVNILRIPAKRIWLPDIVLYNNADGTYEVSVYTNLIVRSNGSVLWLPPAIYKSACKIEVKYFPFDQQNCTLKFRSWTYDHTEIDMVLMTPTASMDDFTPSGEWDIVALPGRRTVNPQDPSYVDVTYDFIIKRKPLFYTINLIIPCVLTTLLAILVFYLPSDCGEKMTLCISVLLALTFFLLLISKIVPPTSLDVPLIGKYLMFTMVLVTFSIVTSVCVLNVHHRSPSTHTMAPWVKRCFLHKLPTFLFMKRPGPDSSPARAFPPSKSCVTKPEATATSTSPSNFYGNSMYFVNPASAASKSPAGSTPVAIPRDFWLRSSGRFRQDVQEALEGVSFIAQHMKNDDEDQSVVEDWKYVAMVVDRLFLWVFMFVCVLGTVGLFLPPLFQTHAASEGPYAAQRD

O=C(N[C@@H]1C2CCN(CC2)[C@H]1Cc1cccnc1)c1cc(F)cc(F)c1 [Compound A]
Ki [1]: 136 µM | Ki [2]: 19 µM | analgesic effect on CFA-induced thermal hyperalgesia (Sprague-Dawley rats): not associated with any significant analgesic effect | food consumption (db/db mouse; lean (db/+) mice, 1.0 mg/kg oral daily, FIG. 16): unaffected | total body weight gain (db/db mouse; obese db/db mice, 1.0 mg/kg oral daily, 7 weeks, FIG. 15): significantly lower | average food consumption (db/db mouse; obese db/db mice, 1.0 mg/kg oral daily, 7 weeks, vs obese controls, FIG. 16): significantly lower | all parameters measured (db/db mouse; obese db/db mice, 1.0 mg/kg oral once daily, 7 weeks, vs vehicle-treated obese db/db): significant decrease in all parameters measured | fasting plasma glucose levels (db/db mouse; obese mice, 1.0 mg/kg oral daily, 7 weeks, FIG. 17): significantly inhibited | glycosylated HbA1c levels (db/db mouse; obese mice, 1.0 mg/kg oral daily, 7 weeks, FIG. 18): significantly inhibited | pro-inflammatory cytokine TNF alpha (db/db mouse; obese mice, 1.0 mg/kg oral daily, 7 weeks, FIG. 19): significantly reduced | triglyceride levels (db/db mouse; obese mice, 1.0 mg/kg oral daily, 7 weeks, vs vehicle-treated controls, FIG. 20): significantly lower | methacholine-induced increase in Penh values ([3]; 10 mg/kg IT qd): significant inhibition | monocytes in BALF ([3]; 10 mg/kg SC): reduced | methacholine-induced increase in Penh values ([3]; 0.1, 1, and 10 mg/kg bid s.c.): significant inhibition | airway hyper-responsiveness ([3]; 0.1, 1 and 10 mg/kg bid s.c. and 10 mg/kg i.t., multiple administrations): significant protection against airway hyper-responsiveness | total WBC and eosinophils in BALF ([3]; 0.1 and 1 mg/kg SC): significantly reduced | lymphocytes in BALF ([3]; 0.1 and 1 mg/kg SC as well as 10 mg/kg IT): reduced | eosinophils and white blood cells in BALF ([3]; multiple administrations, lacks a consistent dose-response relationship): significant reduction
